Assay results reported in ChEMBL document CHEMBL1201862, “PubChem BioAssay data set” (2004).
The source made the active and inactive calls.

How the values were obtained:
[1] = biological target: T1, Neuropeptide Y receptor type 2 (Homo sapiens, UniProt P49146); format: functional, cell-based;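 note: HEK293 cells expressing the receptor and a CNG channel; stimulus was NPY near EC95 followed by isoproterenol to raise cAMP; antagonist potency measured as restoring cAMP signal that NPY suppresses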
T1 sequence (P49146 whole entry): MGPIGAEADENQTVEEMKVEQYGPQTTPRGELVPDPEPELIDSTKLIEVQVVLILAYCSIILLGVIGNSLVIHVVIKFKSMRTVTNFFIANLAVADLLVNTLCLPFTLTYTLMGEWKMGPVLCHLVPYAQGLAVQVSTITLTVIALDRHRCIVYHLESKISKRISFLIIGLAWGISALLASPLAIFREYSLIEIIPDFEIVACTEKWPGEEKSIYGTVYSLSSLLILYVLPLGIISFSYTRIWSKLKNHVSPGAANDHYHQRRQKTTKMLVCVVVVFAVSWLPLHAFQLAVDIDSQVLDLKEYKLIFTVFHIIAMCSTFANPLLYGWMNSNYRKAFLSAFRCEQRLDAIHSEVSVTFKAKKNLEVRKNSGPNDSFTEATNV

[2] = biological target: T2, Neuropeptide Y receptor type 1 (Homo sapiens, UniProt P25929); format: functional;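 note: HEK293 cells with a CNG channel challenged with NPY then isoproterenol; potency as antagonist that reverses NPY suppression of cAMP signal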
T2 sequence (P25929 whole entry): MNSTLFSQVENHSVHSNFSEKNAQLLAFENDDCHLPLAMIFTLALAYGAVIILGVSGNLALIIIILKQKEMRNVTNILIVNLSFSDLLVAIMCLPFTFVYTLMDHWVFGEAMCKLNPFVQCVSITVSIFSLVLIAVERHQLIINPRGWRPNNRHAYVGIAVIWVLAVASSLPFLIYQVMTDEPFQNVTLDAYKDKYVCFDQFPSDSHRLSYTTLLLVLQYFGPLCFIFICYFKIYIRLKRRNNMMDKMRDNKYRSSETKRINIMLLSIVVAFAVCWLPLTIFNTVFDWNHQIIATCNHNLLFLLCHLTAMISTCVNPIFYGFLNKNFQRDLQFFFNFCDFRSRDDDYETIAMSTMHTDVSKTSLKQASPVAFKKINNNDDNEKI

Bcl-2-related protein A1 = biological target: T3, Bcl-2-related protein A1 (Mus musculus, UniProt Q07440); format: functional;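 note: confirmatory dose–response counterscreen on Bfl-1, used to check hits from a UBC13 polyubiquitin inhibitor campaign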
T3 sequence (Q07440 whole entry): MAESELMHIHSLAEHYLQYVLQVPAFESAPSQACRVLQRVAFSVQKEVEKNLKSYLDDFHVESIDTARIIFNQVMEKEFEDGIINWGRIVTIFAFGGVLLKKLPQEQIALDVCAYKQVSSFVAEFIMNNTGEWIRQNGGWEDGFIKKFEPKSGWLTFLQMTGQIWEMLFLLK

[3] = biological target: T4, Ubiquitin-conjugating enzyme E2 N (Homo sapiens, UniProt P61088); format: functional
T4 sequence (P61088 whole entry): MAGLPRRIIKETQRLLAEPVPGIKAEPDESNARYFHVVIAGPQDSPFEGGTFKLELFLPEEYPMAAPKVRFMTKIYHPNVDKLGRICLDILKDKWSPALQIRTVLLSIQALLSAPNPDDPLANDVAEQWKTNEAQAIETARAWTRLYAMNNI

Oxytocin receptor = Oxytocin receptor (Homo sapiens, UniProt P30559); assay: Counterscreen for vasopressin 1 receptor (V1R) agonists: Fluorescence-based cell-based high throughput dose response assay for agonists of the Oxytocin Receptor (OXTR). [Related pubchem assays: 2435 (Primary screen (OXTR agonists in singlicate)), 434964 (Confirmation screen (V1R agonists in triplicate)), 434969 (Counterscreen (OXTR agonists in …; format: functional
Chain of Oxytocin receptor (P30559 whole entry): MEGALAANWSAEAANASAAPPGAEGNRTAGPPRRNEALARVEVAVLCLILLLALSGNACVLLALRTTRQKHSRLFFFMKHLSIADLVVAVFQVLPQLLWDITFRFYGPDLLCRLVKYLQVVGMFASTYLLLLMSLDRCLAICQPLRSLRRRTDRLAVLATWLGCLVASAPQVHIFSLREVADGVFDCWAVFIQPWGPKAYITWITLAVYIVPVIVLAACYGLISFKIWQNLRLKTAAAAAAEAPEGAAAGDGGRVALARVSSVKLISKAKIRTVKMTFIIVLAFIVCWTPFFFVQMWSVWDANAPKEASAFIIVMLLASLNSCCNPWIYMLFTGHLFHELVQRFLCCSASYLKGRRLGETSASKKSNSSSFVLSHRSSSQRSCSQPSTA

[4] = biological target: T4, Ubiquitin-conjugating enzyme E2 N; format: functional; remark: listed apart in the source
[5] = biological target: T5, Apoptotic protease-activating factor 1 (Homo sapiens, UniProt O14727); format: functional
T5 sequence (O14727 whole entry): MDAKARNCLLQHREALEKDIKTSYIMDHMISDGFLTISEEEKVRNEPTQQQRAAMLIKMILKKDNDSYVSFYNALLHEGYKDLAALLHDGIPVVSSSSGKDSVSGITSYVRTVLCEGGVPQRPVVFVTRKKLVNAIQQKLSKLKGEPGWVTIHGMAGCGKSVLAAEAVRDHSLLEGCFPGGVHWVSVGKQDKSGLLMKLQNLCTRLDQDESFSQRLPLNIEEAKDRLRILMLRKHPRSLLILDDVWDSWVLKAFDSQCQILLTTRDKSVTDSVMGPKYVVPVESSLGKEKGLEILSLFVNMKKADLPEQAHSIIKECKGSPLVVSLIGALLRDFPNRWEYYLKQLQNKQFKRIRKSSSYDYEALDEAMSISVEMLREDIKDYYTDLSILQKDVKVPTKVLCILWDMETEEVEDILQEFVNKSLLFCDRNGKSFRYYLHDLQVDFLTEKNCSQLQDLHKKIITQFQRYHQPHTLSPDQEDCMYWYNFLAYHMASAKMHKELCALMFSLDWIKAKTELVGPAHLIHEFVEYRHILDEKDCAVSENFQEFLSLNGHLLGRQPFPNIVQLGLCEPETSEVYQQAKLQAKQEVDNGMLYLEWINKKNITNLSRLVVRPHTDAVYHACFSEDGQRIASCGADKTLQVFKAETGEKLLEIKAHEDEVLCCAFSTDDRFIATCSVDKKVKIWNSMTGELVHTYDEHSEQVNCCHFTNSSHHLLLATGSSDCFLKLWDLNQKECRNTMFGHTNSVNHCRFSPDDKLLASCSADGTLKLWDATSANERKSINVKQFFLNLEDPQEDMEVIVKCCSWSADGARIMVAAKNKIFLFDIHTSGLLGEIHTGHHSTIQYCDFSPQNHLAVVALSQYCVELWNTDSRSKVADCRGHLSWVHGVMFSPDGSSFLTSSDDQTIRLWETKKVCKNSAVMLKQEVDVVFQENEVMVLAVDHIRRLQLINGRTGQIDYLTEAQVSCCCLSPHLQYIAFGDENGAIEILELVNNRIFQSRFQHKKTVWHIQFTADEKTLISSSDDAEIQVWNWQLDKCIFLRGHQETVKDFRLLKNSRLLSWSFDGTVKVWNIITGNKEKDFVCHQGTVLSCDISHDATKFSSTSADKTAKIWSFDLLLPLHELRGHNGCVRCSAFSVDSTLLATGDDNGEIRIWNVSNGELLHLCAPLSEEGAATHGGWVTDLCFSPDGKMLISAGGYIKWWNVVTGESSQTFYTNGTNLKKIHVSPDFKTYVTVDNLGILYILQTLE

Vasopressin V1a receptor = Vasopressin V1a receptor (Homo sapiens, UniProt P37288); assay: Fluorescence-based cell-based high throughput dose response screening assay for agonists of the vasopressin 1 receptor (V1R).; format: functional
Chain of Vasopressin V1a receptor (P37288 whole entry): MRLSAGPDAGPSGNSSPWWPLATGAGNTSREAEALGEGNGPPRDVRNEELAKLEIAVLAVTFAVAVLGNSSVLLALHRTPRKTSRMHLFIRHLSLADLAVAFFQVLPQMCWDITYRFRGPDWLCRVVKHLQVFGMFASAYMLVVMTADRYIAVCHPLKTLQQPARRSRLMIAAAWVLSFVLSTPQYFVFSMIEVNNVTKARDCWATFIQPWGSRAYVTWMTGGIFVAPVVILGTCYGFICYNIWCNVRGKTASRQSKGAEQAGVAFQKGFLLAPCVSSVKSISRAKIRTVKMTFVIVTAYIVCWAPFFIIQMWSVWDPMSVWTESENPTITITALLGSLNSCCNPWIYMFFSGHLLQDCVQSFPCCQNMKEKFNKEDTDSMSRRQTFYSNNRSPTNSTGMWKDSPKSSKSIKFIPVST

INS1 = assay: beta cell apoptosis inhibitors, cytokine rescue, dose response, luminescence, retest (AID 449756); format: functional, cell-based; conditions: Rattus norvegicus, INS1;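 note: cell death triggered by IL-1 beta plus TNF-alpha plus IFN-gamma mixture; protective hits raise ATP signal compared with cytokine alone wells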
[6] = control 3'UTR Renilla luciferase suppression, dose response, counter-screen for Shn3 inhibitor project, cell-based, Clone20-Shn3RL, cherry-picked (AID 624133); format: functional
[7] = Shn3 3'UTR reporter inhibitors, dose response, cell-based, Clone20 osteoblasts, firefly luciferase, cherry-picked (AID 624132); format: functional;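 note: firefly luciferase luminescence from reporter carrying the Shn3 3'UTR in osteoblasts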
[8] = Luminescence Cell-Based Dose Confirmation HTS to Identify Inhibitors of Polyadenylation.; format: functional
[9] = HepG2 cell cytotoxicity, dose response, cytotoxicity control for Shn3 inhibitor project, CellTiter-Glo, cherry-picked (AID 624134); format: functional, cell-based
[10] = biological target: Sphingosine 1-phosphate receptor 3 (Homo sapiens, UniProt Q99500); assay: Dose response cell-based high throughput screening assay for antagonists of the Sphingosine 1-Phosphate Receptor 3 (S1P3). [Related pubchem assays: 1429, 485 ]; format: functional
Chain of Sphingosine 1-phosphate receptor 3 (Q99500 whole entry): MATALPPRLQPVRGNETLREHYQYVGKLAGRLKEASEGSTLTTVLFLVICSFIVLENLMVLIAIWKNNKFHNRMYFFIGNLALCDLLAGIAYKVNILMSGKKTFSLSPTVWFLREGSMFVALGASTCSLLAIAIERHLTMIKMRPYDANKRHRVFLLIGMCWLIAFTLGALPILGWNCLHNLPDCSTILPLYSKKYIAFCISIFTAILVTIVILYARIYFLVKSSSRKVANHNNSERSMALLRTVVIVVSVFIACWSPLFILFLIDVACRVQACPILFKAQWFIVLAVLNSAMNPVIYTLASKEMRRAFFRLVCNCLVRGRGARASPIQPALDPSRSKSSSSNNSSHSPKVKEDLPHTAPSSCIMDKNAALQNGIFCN

[11] = cytotoxicity toward NIH3T3 fibroblasts, dose response, counter-screen, cell-based, ATP luminescence, mouse fibroblasts (AID 2010); format: functional;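 note: cells exposed to compound for about 90 hours before reading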
[12] = inhibitors of intracellular T. cruzi replication, confirmation, NIH3T3 host cells, beta-gal luminescence (AID 2044); format: functional, cell-based;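 note: intracellular parasites grown in NIH/3T3 mouse fibroblasts as host cells; luminescent beta-galactosidase reporter signal from transgenic T. cruzi replicating inside host cells; inhibitors lower the luminescence signal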
[13] = biological target: 5-hydroxytryptamine receptor 1E (Homo sapiens, UniProt P28566); assay: Counterscreen assay for S1P3 antagonists: Dose response cell-based high throughput screening assay to identify antagonists of the 5-Hydroxytryptamine Receptor Subtype 1E (5HT1E). [Related pubchem assays: 1429, 485 ]; format: functional
Chain of 5-hydroxytryptamine receptor 1E (P28566 whole entry): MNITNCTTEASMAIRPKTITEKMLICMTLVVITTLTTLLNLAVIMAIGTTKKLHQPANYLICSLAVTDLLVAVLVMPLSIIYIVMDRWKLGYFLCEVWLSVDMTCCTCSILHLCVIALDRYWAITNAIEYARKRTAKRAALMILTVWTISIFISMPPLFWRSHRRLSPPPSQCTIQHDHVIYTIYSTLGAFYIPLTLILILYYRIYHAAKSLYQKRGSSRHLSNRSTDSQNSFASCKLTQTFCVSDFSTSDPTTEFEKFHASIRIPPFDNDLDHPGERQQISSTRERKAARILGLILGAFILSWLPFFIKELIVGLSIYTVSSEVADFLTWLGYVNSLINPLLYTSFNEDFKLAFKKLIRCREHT

With `COC(=O)c1cc(Cl)c(NC(=O)c2ccc(C(C)(C)C)cc2)cc1OC` the IC50 [1] was 4.32 µM (active) and the IC50 [2] was 5.31 µM (active).
With `C#CCOCCOCCOCCNc1nc(N2CCN(C(=O)CCCCCCCCCCNC(=O)[C@@H](CCC(=O)O)n3cc(CCCCCN)nn3)CC2)nc(N2CCN(C(=O)CCCCCCCCCCNC(=O)[C@H](CCCCN)n3cc(C[C@@H](C)CC)nn3)CC2)n1` the IC50 (Bcl-2-related protein A1) was > 20 µM (inactive), the IC50 [3] was 4.52 µM (active) and the EC50 (Oxytocin receptor) was > 29.9 µM (not active). The IC50 [4] was 11.4 µM (active), the IC50 [5] was 27.2 µM (active) and the EC50 (Vasopressin V1a receptor) was 8.37 µM (active).
With `COc1ccc(CNc2ncnc3sccc23)cc1` the AC50 (INS1) was 5.39 µM (active), the AC50 [6] was 8.63 µM (active) and the AC50 [7] was 1.66 µM (active). The EC50 [8] was > 120 µM (not active) and the AC50 [9] was 36 µM (active).
In the case of `FC(F)(F)c1cccc(NC(S)=NC(c2ccccc2)c2ccccc2)c1`, the IC50 [10] is reported as 3.29 µM (active), the EC50 [11] is reported as 9.61 µM (active) and the AC50 [6] is reported as 26.2 µM (active). The AC50 [7] was 7.17 µM (active), the EC50 [12] was 2.22 µM (active) and the IC50 [13] was > 50 µM (not active). For the same molecule, the AC50 [9] was 21.2 µM (active).
